21 molecules from the supplement of paper PMC8498969 can be followed below.

SMILES strings stand for the structures. Some results are limits rather than exact numbers.

Assay [1] concerns HEK293. The experiment in a line: maximal inhibition of ZIKV NS1 production (% inhibition); higher = stronger antiviral effect. How it is done: (§1)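 HEK293 cells in 1536-well plates were pre-treated with compound for 1 h, infected with ZIKV (MOI 1) for 24 h, and NS1 antigen (intra- plus extracellular) was measured by TR-FRET. Confirmation used 11-point 1:3 dilutions, and IC50 and maximal inhibition were fitted in GraphPad Prism.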

The subject of assay [2] is HEK293. The experiment in a line: cytotoxicity IC50 (ATP content, uninfected cells); higher = less cytotoxic. The following applies: infection: none.
Assay [3] relates to HEK293. The experiment in a line: IC50 for inhibition of ZIKV NS1 production. How it is done: as §1

Take `CO[C@H]1[C@H](O)[C@@H](O)[C@H](n2c3c(Cl)cccc3c3c4c(c5c6cccc(Cl)c6[nH]c5c32)C(=O)NC4=O)O[C@@H]1CO`: in the assay with HEK293 [1], the maximal inhibition came to 90. For the same molecule, in the assay with HEK293 [2], the “cytotoxicity IC50” value is 60 µM. Moreover, the concentration for half-maximal inhibition (IC50) (in general, the midpoint of a concentration-inhibition curve) with HEK293 [3] amounted to 2.1 µM.

In the case of `CCN1/C(=C/C=C/c2sc3ccccc3[n+]2CC)Sc2ccccc21`, the maximal inhibition in the assay on HEK293 [1] is 71. Also, in the assay on HEK293 [2], the “cytotoxicity IC50” value was determined as 1.2 µM. Besides, in the assay with HEK293 [3], the IC50 came to 50 µM.

In the assay with HEK293 [1], `CSc1cccc(Nc2ncc3cc(-c4c(Cl)cccc4Cl)c(=O)n(C)c3n2)c1` yielded a maximal inhibition of 98. In addition, the “cytotoxicity IC50” value in the assay with HEK293 [2] came to 6.6 µM. In the assay on HEK293 [3], this molecule had an IC50 of 8.4 µM.

In turn, `O=C1[C@H](Cc2ccc(O)cc2)N2C(=O)CCN(C(=O)NCc3ccccc3)[C@H]2CN1Cc1cccc2ccccc12` returned a maximal inhibition with HEK293 [1] of 103. In addition, in the assay with HEK293 [2], the “cytotoxicity IC50” value is over 100 µM. This molecule showed a 50% inhibitory concentration (IC50) in the assay on HEK293 [3] of 13 µM.

In turn, `C[C@@H]1O[C@@H](O[C@H]2C[C@@H](O)[C@]3(CO)[C@H]4[C@H](O)C[C@]5(C)[C@@H]([C@@H]6COC(=O)C6)CC[C@]5(O)[C@@H]4CC[C@]3(O)C2)[C@H](O)[C@H](O)[C@H]1O` had a maximal inhibition in the assay on HEK293 [1] of 103. Besides, the “cytotoxicity IC50” value in the assay on HEK293 [2] is 0.85 µM. In the assay on HEK293 [3], this molecule yielded a concentration for half-maximal inhibition (IC50) of 1.5 µM.

The molecule `COc1cc(NS(C)(=O)=O)ccc1Nc1c2ccccc2nc2ccccc12` came in with a maximal inhibition with HEK293 [1] of 105. In addition, the “cytotoxicity IC50” value with HEK293 [2] was determined as 70 µM. The molecule also yielded a concentration for half-maximal inhibition (IC50) in the assay with HEK293 [3] of 1.4 µM.

Molecule `COC[C@H](NC(=O)c1cnc(C)s1)C(=O)N[C@@H](COC)C(=O)N[C@@H](Cc1ccccc1)C(=O)[C@@]1(C)CO1` had a maximal inhibition in the assay on HEK293 [1] of 100. Further, in the assay on HEK293 [2], the “cytotoxicity IC50” value is 0.72 µM. Besides, the 50% inhibitory concentration (IC50) in the assay with HEK293 [3] turned out to be 0.32 µM.

Molecule `CCC[C@H](Nc1nc(-c2ccc(NC(=O)NCC)c(OC)c2)ncc1C)c1cccnc1` yielded a maximal inhibition in the assay on HEK293 [1] of 72. Also, the “cytotoxicity IC50” value in the assay with HEK293 [2] is over 100 µM. The half-inhibitory concentration (IC50) in the assay with HEK293 [3] stood at 0.17 µM.

In the assay on HEK293 [1], `O=C(Nc1ccc([N+](=O)[O-])cc1Cl)c1cc(Cl)ccc1O` registered a maximal inhibition of 102. In the assay with HEK293 [2], the “cytotoxicity IC50” value was determined as 3.3 µM. The molecule further returned a 50% inhibitory concentration (IC50) with HEK293 [3] of 8.3 µM.

The molecule `CC(C)(C)c1cnc(CSc2cnc(NC(=O)C3CCNCC3)s2)o1` displayed a maximal inhibition with HEK293 [1] of 93. For the same molecule, in the assay with HEK293 [2], the “cytotoxicity IC50” value is over 100 µM. For the same molecule, the IC50 with HEK293 [3] stood at 1.9 µM.

In the case of `NC1(c2ccc(-c3nc4ccn5c(=O)[nH]nc5c4cc3-c3ccccc3)cc2)CCC1`, the maximal inhibition in the assay on HEK293 [1] stood at 103. In addition, the “cytotoxicity IC50” value with HEK293 [2] was found to be 4.4 µM. This molecule also returned a half-maximal inhibitory concentration (IC50) in the assay with HEK293 [3] of 23 µM.

Turning to `CCCOc1ccc2[nH]c(NC(=O)OC)nc2c1`, the maximal inhibition in the assay on HEK293 [1] was 67. Also, the “cytotoxicity IC50” value in the assay with HEK293 [2] is 86 µM. In the assay with HEK293 [3], this molecule returned a half-inhibitory concentration (IC50) of 4.9 µM.

Molecule `C[C@@H]1C[C@@H]([C@H](O)CC2CC(=O)NC(=O)C2)C(=O)[C@@H](C)C1` yielded a maximal inhibition in the assay on HEK293 [1] of 102. Besides, in the assay with HEK293 [2], the “cytotoxicity IC50” value is over 100 µM. In the assay on HEK293 [3], the half-inhibitory concentration (IC50) was determined as 0.29 µM.

Turning to `Nc1nc(F)nc2c1ncn2[C@@H]1O[C@H](CO)[C@@H](O)[C@H]1O`, the maximal inhibition in the assay with HEK293 [1] came out at 98. Besides, the “cytotoxicity IC50” value with HEK293 [2] is 11 µM. In the assay on HEK293 [3], this molecule registered an IC50 of 2.9 µM.

`C/C=C(/C)C(=O)O[C@H]1C(C)=C2[C@H]([C@@H]1OC(=O)CCCCCCC)[C@@](C)(OC(C)=O)C[C@H](OC(=O)CCC)[C@@]1(O)[C@H]2OC(=O)[C@@]1(C)O` came in with a maximal inhibition in the assay on HEK293 [1] of 93. Besides, in the assay on HEK293 [2], the “cytotoxicity IC50” value turned out to be 40 µM. The molecule also displayed an IC50 in the assay with HEK293 [3] of 0.17 µM.

Take `S=c1nc[nH]c2nc[nH]c12`: the maximal inhibition in the assay on HEK293 [1] was determined as 99. Besides, the “cytotoxicity IC50” value with HEK293 [2] was 6.5 µM. Besides, the IC50 in the assay on HEK293 [3] was 12 µM.

`C[C@@H]1CC[C@@]2(OC1)O[C@H]1C[C@H]3[C@@H]4CC=C5C[C@@H](O[C@@H]6O[C@H](CO)[C@@H](O[C@@H]7O[C@@H](C)[C@H](O)[C@@H](O)[C@H]7O)[C@H](O)[C@H]6O[C@@H]6O[C@@H](C)[C@H](O)[C@@H](O)[C@H]6O)CC[C@]5(C)[C@H]4CC[C@]3(C)[C@H]1[C@@H]2C` came in with a maximal inhibition in the assay on HEK293 [1] of 99. Also, the “cytotoxicity IC50” value in the assay on HEK293 [2] was determined as 45 µM. Further, in the assay with HEK293 [3], the IC50 came to 16 µM.

For `Cn1c2ccccc2c2c3c(c4c5ccccc5n(CCC#N)c4c21)CNC3=O`, in the assay on HEK293 [1], the maximal inhibition came out at 82. In addition, in the assay with HEK293 [2], the “cytotoxicity IC50” value amounted to 20 µM. The IC50 with HEK293 [3] worked out at 0.94 µM.

Molecule `CC(C)C[C@H](NC(=O)[C@H](Cc1ccccc1)NC(=O)c1cnccn1)B(O)O` registered a maximal inhibition in the assay with HEK293 [1] of 95. The “cytotoxicity IC50” value with HEK293 [2] was determined as 0.04 µM. The IC50 with HEK293 [3] worked out at 0.025 µM.

In the case of `O=C(Cc1ccc(-c2ccc(OCCN3CCOCC3)cc2)cn1)NCc1ccccc1`, in the assay with HEK293 [1], the maximal inhibition amounted to 50. Besides, in the assay with HEK293 [2], the “cytotoxicity IC50” value was determined as 19 µM. The same molecule yielded an IC50 in the assay with HEK293 [3] of 0.48 µM.

`CN[C@@H]1C[C@H]2O[C@@](C)([C@@H]1OC)n1c3ccccc3c3c4c(c5c6ccccc6n2c5c31)C(=O)N[C@H]4O`: the maximal inhibition in the assay with HEK293 [1] was found to be 96. The “cytotoxicity IC50” value in the assay with HEK293 [2] was 100 µM. The molecule further had a concentration for half-maximal inhibition (IC50) in the assay on HEK293 [3] of 0.76 µM.
